Results taken from US8461389B2, “Psycho-pharmaceuticals” (University College Dublin, National University of Ireland, …, priority 2008, dated 2013).

How the values were obtained:
[1] = target: T1, Sigma 2 receptor (Homo sapiens, UniProt Q5BJF2); experiment: Novascreen receptor affinity screen (competition with reference ligand), Sigma 2; assay type: binding; details: 1 μM Captodiamine competing with a reference ligand; read-out: percent target inhibition, Sigma 2 receptor
T1 construct: Novascreen (contract screen)
T1 sequence (Q5BJF2 whole entry, species assumed): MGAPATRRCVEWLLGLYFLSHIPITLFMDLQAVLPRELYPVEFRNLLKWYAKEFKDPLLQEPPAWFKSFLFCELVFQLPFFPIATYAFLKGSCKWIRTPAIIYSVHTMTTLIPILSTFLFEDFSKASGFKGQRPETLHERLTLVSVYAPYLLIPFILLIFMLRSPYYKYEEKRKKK
Protocol: The Structure (FIG. 9A), receptor affinity (FIG. 9B), pharmacokinetics (FIG. 9C) and growth factor modulation (FIG. 9D) of Captodiamine are provided. Analysis of receptor affinities was performed by Novascreen™ and those displacing >20% of the natural ligand are indicated by the filled boxes. Blood levels of Captodiamine were determined by GC mass spectroscopy. In separate samples taken from a cannulated jugular at increasing time intervals following a single intraperitoneal injection of tha drug (5 mg/kg). Growth factor analysis was performed using tissue homogenates and ELISA assays specific for each growth factor (Promega). Values were analysed using a Student t-test and those with a p value<0.05 were accepted as significant and are indicated with an asterisk.
The higher the target inhibition value, the greater the affinity Captodiamine has for this particular receptor as it displaces a greater proportion of the reference ligand. This assay is an automated high throughput assay performed on cell lines that express only one type of receptor and was carried out by Novascreen (www.novascreen.com). Receptor affinity is a good starting point for determining the mechanism of action for a particular compound.

[2] = tested on: C57B16 mice; experiment: Elevated X-maze; assay type: in vivo; details: 3 and 5 mg/kg i.p. once daily for 7 days; FIG. 4
Excerpt: The elevated X-Maze, otherwise known as the Elevated Plus Maze is a test that relies on the inherent conflict between exploration of a novel area and avoidance of its aversive features. The test may be used in male or female rats or mice or male gerbils. It is reliable in a wide range of strains and in group-housed or isolated animals. The maze consists of four arms in the form of an x or plus: two open arms and two arms of the same size, also with an open roof but enclosed by walls. The two open arms are opposite each other and converge into a central platform. The animal under investigating is observed by a video camera and its movements scored by the tracking software Ethovision by Noldus. During the experiment the animal is placed in the central platform of the maze facing an open arm and is observed for 5 minutes with the following being measured: number of entries into open arms, number of entries into closed arms, time spent in open arms, time spent in closed arms and finally the time spent in the central square (File et al., Current Protocols in Neuroscience (2004) 8.3.1-8.3.22).
The elevated X-maze has strong claims to validity as an animal model of anxiety and is of great utility in evaluating putative anxiety modulating drugs. The test is based on rodents' natural fear of heights and open spaces. […]

[3] = tested on: C57B16 mice; experiment: Forced swim test; assay type: in vivo; details: 3 and 5 mg/kg i.p.; FIGS. 10A and 10B
Protocol: • 1. Fill a 12 cm diameter glass cylinder to 10 cm with 22° C. water. • 2. Place two animals simultaneously in individual side-by-side cylinders separated by an opaque screen. • 3. Place mice in the cylinders for 6 minutes. • 4. Observe the behaviour of the mice for the last 4-minutes of the 6-minute experimental session. • 5. Sessions are videotaped and scored blind, Immobility is scored by summing the time spent immobile; movements necessary to maintain the animals head above water were not scored with data from treated groups compared with data from the control group using nonpaired Student's t tests (two tailed). • 6. Animals are dried with paper towels and heat lamps. FST in Rats: Habituation Session (Day 1) • 1. On Day 1, […] prior to testing, place the animals in the experimental room 60 min before the beginning of the habituation session. Randomly assign animals to a drug treatment, but give all animals within a cage the same treatment. Make food and water available throughout the experiment. • 2. Weigh two animals individually, then place one rat in each of the two cylinders (20 cm in diameter×40 cm high) containing water (25° C.) for 15 min (habituation session). No scoring of immobility is performed during the habituation session. […]
Values are expressed as mean±S.E.M (n=8). Statistical difference was determined using a Mann Whitney non-parametric U-test. […]

CCCCSc1ccc(C(SCCN(C)C)c2ccccc2)cc1 (stereo not drawn) [Captodiamine, 2-[(4-butylsulfanylphenyl)-phenyl-methyl]sulfanyl-N,N-dimethyl-ethanamin]
inhibition at 1 µM [1]: > 20% | time exploring the open arms of the elevated X-maze [2]: significantly longer periods exploring the open arms | time to immobility in the forced swim test [3]: significant increase on time to immobility
